From PubChem BioAssay AID1949 (Southern Research Institute, 2009) come the findings set out here.

This assay has as its system M. tuberculosis H37Rv growth inhibition. The experiment in a line: Confirmatory growth inhibition assay against Mycobacterium tuberculosis H37Rv, potency (AID 1949).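 Also: bacteria grown 7 days with compound before Alamar blue readout.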

≈ marks a conversion by molar mass, not a printed value. Records with an inconclusive call do not appear. Calls of active or inactive are those of the source. No rule for the calls is given here.

Broadly, the IC50 is the concentration at which inhibition is half-maximal. Turning to `O=C(CC(O)(C(F)(F)F)C(F)(F)F)Nc1ccc(Cl)c(Cl)c1`, the IC50 was 1.51 µg/mL (≈ 4.08 µM).

Take `COc1ccc(Cl)cc1/C=C/[N+](=O)[O-]`: the IC50 was 5.64 µg/mL (≈ 26.4 µM).

In the case of `O=C(Nc1ccc(F)cc1)c1ccc(C#CC2(O)CCCCC2)cc1`, the IC50 is 10.6 µg/mL (≈ 31.4 µM).

As for `CC(=O)Oc1ccc2nc(-c3ccc(C(C)(C)C)cc3)oc(=O)c2c1`, the IC50 is > 50 µg/mL (inactive).

Consider `Cc1ccc(-c2nnc3sc(Cc4ccccc4)nn23)cc1`, for which the half-inhibitory concentration (IC50) is less than 0.1 µg/mL.

As for `COc1ccc2nc(NC(=O)C(Sc3ccccc3)c3ccccc3)sc2c1` (stereo unspecified), the IC50 was 4.87 µg/mL (≈ 12 µM).

Take `CN1CCC(O)(c2cccs2)C(C(=O)c2cccs2)C1` (stereo unspecified): the half-inhibitory concentration (IC50) was 1.54 µg/mL (≈ 5.01 µM).

Consider `COc1ccc(CCNc2nc(-c3ccccn3)cs2)cc1OC`, for which the IC50 is 0.72 µg/mL (≈ 2.11 µM).

For the molecule `O=C(Nc1ccc2oc(-c3cccc4ccccc34)nc2c1)c1cncc(Br)c1`, the IC50 was 2.72 µg/mL (≈ 6.12 µM).

For `O=[N+]([O-])c1c(-n2cccn2)nn(-c2ccccc2)c1C(Cl)Cl`, the IC50 is 3.09 µg/mL (≈ 9.14 µM).

As to `O=C(Nc1ccccc1-c1ccccc1)C(Cl)(Cl)Cl`, the half-maximal inhibitory concentration (IC50) was 2.44 µg/mL (≈ 7.76 µM).

Turning to `COc1ccc(-c2cc(C(F)F)n3ncc(C(=O)N4CCN(c5ccccc5)CC4)c3n2)cc1`, the IC50 is > 50 µg/mL (inactive).

Regarding `Oc1cccc(Nc2nc(NCc3ccccc3)c3ccccc3n2)c1`, the half-inhibitory concentration (IC50) is 0.98 µg/mL (≈ 2.86 µM).

Regarding `CC(C)(C)OC(=O)COc1cc2oc(=O)cc(-c3ccccc3)c2cc1Cl`, the IC50 was > 50 µg/mL (inactive).

Regarding `O=C(Nc1cccc(Cl)c1)Nc1ccc(N2CCOCC2)c(C(F)(F)F)c1`, the IC50 is 3.59 µg/mL (≈ 8.98 µM).

`Cc1cccnc1Nc1nc(-c2ccccn2)cs1`: the concentration for half-maximal inhibition (IC50) was less than 0.1 µg/mL.

Regarding `O=C(/C=C/c1cccc(C(F)(F)F)c1)Nc1cccc(C(F)(F)F)c1`, the IC50 is 0.9 µg/mL (≈ 2.51 µM).

`Clc1ccccc1COc1ccc2ccccc2c1CNCc1cccnc1`: the IC50 is 8.75 µg/mL (≈ 22.5 µM).

On to `O=C(Oc1ccccc1)c1ccc(S(=O)(=O)N2CCCCC2)cc1`, for which the IC50 is 0.73 µg/mL (≈ 2.11 µM).

Turning to `Cc1ccccc1OCCOc1cccc(C=O)c1`, the IC50 was 6.79 µg/mL (≈ 26.5 µM).

Consider `O=c1c2ccccc2nc(/C=C/c2ccc([N+](=O)[O-])o2)n1CCCO`, for which the IC50 is less than 0.1 µg/mL.

On to `O=C1C(Cl)=C(N2CCOCC2)C(=O)N1c1cccc(Cl)c1Cl`, for which the IC50 is 20.9 µg/mL (≈ 57.7 µM).

With `Cc1cccc(Nc2nc(N)nc(CN3CCN(c4cccc(Cl)c4)CC3)n2)c1`, the IC50 was 0.39 µg/mL (≈ 0.951 µM).

With `O=C(NCCc1ccc(Cl)cc1)C12CC3CC(CC(C3)C1)C2`, the IC50 was 13.7 µg/mL (≈ 43 µM).

`CCN(CC)CCn1nc2c3c(cccc3c1=O)-c1ccccc1-2`: the IC50 was 5.48 µg/mL (≈ 17.2 µM).

In the case of `O=C1N(Cc2ccccc2Cl)c2ccc(Cl)cc2C1(O)c1c[nH]c2ccccc12` (stereo unspecified), the IC50 was 3.04 µg/mL (≈ 7.18 µM).

Turning to `CCOC(=O)COc1ccc2c(c1)c(C(=O)OCC)c(C)n2CC`, the IC50 is 0.4 µg/mL (≈ 1.2 µM).

In the case of `O=C(/C=C\c1ccccc1)Nc1cccc(-c2nc3ccccc3[nH]2)c1`, the IC50 is 7.66 µg/mL (≈ 22.6 µM).

Consider `CC(C)(C)Nc1nc(N2CCCC2)nc(N2CCCC2)n1`, for which the IC50 was > 50 µg/mL (inactive).

For `O=[N+]([O-])c1ccc(N2CCN(C(=S)NCc3ccc(Cl)cc3)CC2)cc1`, the IC50 was 2.58 µg/mL (≈ 6.6 µM).

`Cc1ccc(-c2ccc(OCC(=O)OCc3ccccc3)cc2)cc1`: the IC50 is 0.23 µg/mL (≈ 0.692 µM).

For the molecule `COc1ccc(CCn2cnc3oc(-c4ccccc4)c(-c4ccccc4)c3c2=N)cc1OC`, the IC50 is > 50 µg/mL (inactive).

Take `Cc1cccc(C)c1OCc1nnc(SCC(=O)NCCc2ccccc2)o1`: the IC50 was 1.75 µg/mL (≈ 4.4 µM).

For the molecule `CC1=Nc2c(ccc3cccnc23)C1(C)C`, the IC50 was 0.19 µg/mL (≈ 0.904 µM).

Turning to `COc1cccc(C2=CC(c3c(F)cccc3Cl)n3nnnc3N2)c1` (stereo unspecified), the IC50 is 7.55 µg/mL (≈ 21.1 µM).

On to `CCN(CC)c1ccc(NC(=S)NCC(C)C)cc1`, for which the IC50 is 5.43 µg/mL (≈ 19.4 µM).

Turning to `N#Cc1ccc(NC(=O)C23CC4CC(CC(C4)C2)C3)cc1`, the IC50 is 23.7 µg/mL (≈ 84.6 µM).

Regarding `Cc1ccc(Nc2ccc(-n3ccnc3)nn2)cc1Cl`, the IC50 is 2.67 µg/mL (≈ 9.34 µM).

Turning to `Fc1ccccc1-c1nc(-c2cnc3ccccc3c2)c(-c2cccs2)[nH]1`, the IC50 is 5.05 µg/mL (≈ 13.6 µM).

As for `Cc1ccc(NC(=O)CC2COc3ccccc3O2)cc1Cl` (stereo unspecified), the IC50 is 1.56 µg/mL (≈ 4.91 µM).

Turning to `Cc1cc(Cl)ccc1OCC(O)CNC(C)c1ccccc1` (stereo unspecified), the IC50 was 8.02 µg/mL (≈ 25.1 µM).

In the case of `CC(Oc1ccc(C(=O)NC2CCCCC2)cc1)C(=O)OCc1ccccc1Cl` (stereo unspecified), the 50% inhibitory concentration (IC50) is 0.95 µg/mL (≈ 2.28 µM).

As for `CC(C)(C)C(=O)Nc1nc2c(Cl)c(Cl)ccc2s1`, the IC50 was 7.02 µg/mL (≈ 23.2 µM).

With `c1ccc2cc(OCCCn3ccnc3)ccc2c1`, the IC50 was 10.3 µg/mL (≈ 40.9 µM).

In the case of `COc1ccc(Br)cc1C(=O)Nc1ccc(N2CCN(C)CC2)cc1`, the IC50 was 12.6 µg/mL (≈ 31.1 µM).

Turning to `CCCc1ccc(OCC(=O)Nc2ccc(F)cc2)cc1`, the IC50 was 0.85 µg/mL (≈ 2.96 µM).

In the case of `COC(=O)COc1ccc2c(=O)c(-c3ccccc3Cl)c(C)oc2c1`, the IC50 is 0.42 µg/mL (≈ 1.17 µM).

In the case of `Cc1ccc(N2CCN(CC(O)COc3ccc4ccccc4c3)CC2)c(C)c1` (stereo unspecified), the IC50 is 9.31 µg/mL (≈ 23.8 µM).

As to `CCOC(=O)Cc1nc2cc(Cl)ccc2o1`, the IC50 is 10.4 µg/mL (≈ 43.5 µM).

Consider `COC(=O)c1ccc(OCC(=O)Nc2ccccc2F)cc1`, for which the IC50 was 0.55 µg/mL (≈ 1.81 µM).

As for `CC(C(=O)Oc1cccc2cccnc12)N1C(=O)C2C3C=CC(C4CC34)C2C1=O` (stereo unspecified), the half-maximal inhibitory concentration (IC50) is 3.16 µg/mL (≈ 8.14 µM).
